Activity and inhibition data for two compounds are collected here from ChEMBL document CHEMBL1146389, “Synthesis and evaluation of prodrugs for anti-angiogenic pyrrolylmethylidenyl oxindoles” (2007).

Assay [1] concerns HUVEC. As to the kind of experiment: Inhibition of VEGF-stimulated angiogenesis in HUVECs. The format is functional, cell-based. The following applies: Homo sapiens.
Assay [2] concerns HUVEC. Briefly: Inhibition of VEGF-stimulated angiogenesis in HUVECs at 1 uM relative to control. Conditions: Homo sapiens. The format is functional.

The structures appear in SMILES notation.

Turning to `Cc1cc(C)c(/C=C2\C(=O)N(Cc3ccc([N+](=O)[O-])cc3)c3ccccc32)[nH]1`, the Activity result in assay [1] was “Dose-dependent effect”.

The compound `Cc1cc(C)c(/C=C2\C(=O)Nc3ccccc32)[nH]1` [SEMAXANIB] had an inhibition at 1 µM in assay [2] of 94%.

Broadly, the inhibition is the change of the read-out against control, counted positive when it falls. A higher inhibition goes with strong suppression.
